Values of other authors, collected in US20170340580A1, “BIOADHESIVE PATCH” (priority 2008, published 2017).

Details: 8 mg ml^−1; temperatures up to 37° C.

Structure (SMILES): NCC(=O)CCC(=O)O [ALA, 5-aminolevulinic acid]
- ALA stability in 0.1 M borate buffer pH 5: up to 6 hours
